Results from patent USRE35053E, “Amines useful in producing pharmaceutically active CNS compounds” (The Upjohn Company, priority 1992, dated 1995).
Where a name gives a salt, the structure may show the parent alone.

How the values were obtained:
angiogenesis = assay: fertile egg or chick embryo assay of Folkman (inhibition of angiogenesis / tumor growth); assay type: in vivo; details: chick embryo; for inhibition of angiogenesis: 50 μg/10 μl with heparin, avascular zone 4 mm or greater
Procedure: According to this procedure compounds which are considered to be "active" (i.e, antiangiogenic) give an avascular zone of 4 mm or greater in some embryos when tested at 50 μg/10 μl in the presence of 50 μg/10 μ of heparin.

arachidonic acid = assay: Arachidonic Acid Antagonism Assay (AAAA); assay type: in vivo, mouse (Charles River male CF-1); details: mice; for arachidonic acid antagonism (elevation of LD50 of arachidonic acid): IV, 15 min before sodium arachidonate, outside 95% confidence interval of control LD50
Procedure: While not necessary to determine arachidonic acid antagonism, the above assay has been modified as follows: Charles River male CF-1 mice weighing […] are treated IV with the test compound dissolved in 1.0% Tween-80 and 0.1% hydrochloric acid in distilled water. 0 2 ml total volume. Fifteen minutes later sodium arachidonate (90% pure) in physiological (normal) […] is injected into the tail vein. The LD50 is measured using the Spearman-Karber method with a log dose interval of 0.05 (N-6). Compounds which elevate the LD50 outside of the 95% confidence interval of the control LD50 are considered to be "active".

interleukin-1 = assay: inhibition of interleukin-1 induced T cell proliferation assay; assay type: cell-based; details: active = >30% at 10^-6 M
Description: The inhibition of interleukin-1 induced T cell proliferation assay, Proc. Nat. […] Since people with arthritis make excess interleukin 1, compounds which inhibit the activity of interleukin 1 are useful in the treatment of arthritis. According to this procedure compounds which inhibit the activity of interleukin 1 greater that 30% at 10^-6 M are considered to be "active".

[1] = test system: MDA formation in rat brain synaptosomes; assay: Malonyldialdehyde (MDA) Formation Assay (lipid peroxidation); assay type: biochemical; details: active = 50% inhibition or more at 200 μM or less
Description: The MDA assays of Buege and Aust, Methods in Enzymology, Fleisher and Packer Editors. Academic Press, 1978, New York, Vol LII, p 302-310 and Kohn and Liversedge, J. Pharmacol. Exp. Ther. 82. […] Since iipid peroxidation is involved in the pathophysiology of central nervous system trauma, compounds which inhibit MDA formation are useful in treating the conditions listed below.
While not necessary to determine MDA formation, the above assays have been modified as follows: rat brain synaptosomes are prepared as described in the Example about the conjugated diene assay, except that the final wash of the synaptosomes and final suspension are in physiological (normal) saline in which the pH has been adjusted to 7 0. The synaptosomes are incubated for 10 min at 37° in physiological (normal) saline pH 7.0 (total volume=100 ul) containing; 10 ul synaptosomal suspension. 10% DMSO plus or minus drug. 150 uM Fe^+++ and 50 uM Fe^++. The incubation is started by the rapid addition of iron to the otherwise complete reaction. The iron solutions are prepared fresh as ferric chloride and ferrous ammonium sulfate in argon-purged water. Following the 10 min incubation, the reaction is stopped by the addition of 500 ul ice-cold 12% trichloroacetic acid prepared in 0.5 N hydrochloric acid. Water (300 ul) is then added along with 100 ul of freshly prepared thiobarbituric acid (3.3% in 0.5N sodium hydroxide) and 10 ul of 5mM desferrioxamine. The sample is then heated in a boiling water bath for 20 minutes. The samples are cooled and centrifuged for 15 minutes at 1500 xg and the absorbance of the supernatant fraction is read at 532 nm. The % inhibition of MDA formation is calculated by dividing the absorbance of sample containing drug by the absorbance of samples incubated without drug. Reaction blanks are samples incubated in the absence of iron A compound that inhibits MDA formation by 50% or more at a concentration of 200μM or less is considered "active".

Row | Structure (SMILES) | inhibition of angiogenesis (angiogenesis) | inhibition of interleukin 1 (interleukin-1) | inhibition of MDA formation [1] | further results
1 | C[C@H]1C[C@@H]2[C@H]([C@@H](O)C[C@@]3(C)[C@H]2CC[C@]3(O)C(=O)CN2CCN(c3ccccn3)CC2)[C@@]2(C)C=CC(=O)C=C12 [Example 21, 11β,17α-dihydroxy-6α-methyl-21-[4-(2-pyridinyl)-1-piperazinyl]pregna-1,4-diene-3,20-dione] | demonstrate inhibition of angiogenesis | demonstrate inhibition of interleukin 1 |  | % of Embryos with 4 mm or Greater A vascular Zone (angiogenesis; 50 μg/10 μl in the presence of heparin): 91%; arachidonic acid antagonism (elevation of LD50 of arachidonic acid) (arachidonic acid): demonstrate arachidonic acid antagonism
2 | CN(CCN(C)c1ccccn1)CC(=O)[C@@]1(O)CC[C@H]2[C@@H]3CCC4=CC(=O)CC[C@]4(C)C3=CC[C@@]21C.Cl.Cl [Example 24, 17α-hydroxy-21-[methyl[2-(methyl-2-pyridinylamino)ethyl]amino]pregna-4,9(11)-diene-3,20-dione dihydrochloride] | demonstrate inhibition of angiogenesis |  |  | arachidonic acid antagonism (elevation of LD50 of arachidonic acid) (arachidonic acid): demonstrate arachidonic acid antagonism
3 | COc1ccc(CCN(CC(=O)[C@@]2(O)CC[C@H]3[C@@H]4CCC5=CC(=O)CC[C@]5(C)C4=CC[C@@]32C)Cc2cc(OC)c(OC)c(OC)c2)cc1OC [Example 37, 17α-hydroxy-21-[[2-(3,4-dimethoxyphenyl)ethyl]-[3,4,5-trimethoxyphenyl)methyl]amino]pregna-4,9(11)diene-3,20-dione hydrochloride] | demonstrate inhibition of angiogenesis | demonstrate inhibition of interleukin 1 |  | 
4 | C[C@]12CCC(=O)C=C1CC[C@@H]1C2=CC[C@@]2(C)[C@H]1CC[C@]2(O)C(=O)CN1CCN(c2cccc(N3CCCC3)n2)CC1 [Example 62, 17α-hydroxy-21-[4-[6-(1-pyrrolidinyl)-2-pyridinyl]-1-piperazinyl]pregna-4,9(11)-diene-3,20-dione(E)-2-butenedioate (1:1) salt] |  |  | demonstrate such activity | % of Control LD50 (arachidonic acid; 100 mg/kg, LD50 of sodium arachidonate): 138%; arachidonic acid antagonism (elevation of LD50 of arachidonic acid) (arachidonic acid): demonstrate arachidonic acid antagonism
5 | C[C@]12CC(=O)[C@H]3[C@@H](CCC4=CC(=O)CC[C@@]43C)[C@@H]1CC[C@@H]2C(=O)CN1CCN(c2cc(N3CCCC3)nc(N3CCCC3)n2)CC1.Cl.Cl [Example 94, 21-[4-[2,6-bis(1-pyrrolidinyl)-4-pyrimidinyl]-1-piperazinyl]-pregn-4-ene-3,11,20-trione dihydrochloride] |  | demonstrate inhibition of interleukin 1 |  | 
6 | CCN(CC)c1ccc(N(C)C)c(N2CCN(CC(=O)[C@@]3(O)CC[C@H]4[C@@H]5CCC6=CC(=O)CC[C@]6(C)C5=CC[C@@]43C)CC2)n1.Cl.Cl [Example 96, 21-[4-[6-(diethylamino)-3-(dimethylamino)-2-pyridinyl]-1-piperazinyl]-17α-hydroxypregna-4,9(11)-diene-3,20-dione dihydrochloride] |  | demonstrate inhibition of interleukin 1 |  | 
7 | C[C@]12CC[C@H]3[C@@H](CCC4=CC(=O)C=C[C@@]43C)[C@@H]1CC[C@@H]2C(=O)CN1CCN(c2cc(N3CCCC3)nc(N3CCCC3)n2)CC1.Cl.Cl [Example 97, 21-[4-[2,6-di-(1-pyrrolidinyl)-4-pyrimidinyl]-1-piperazinyl]-pregna-1,4-diene-3,20-dione dihydrochloride] | demonstrate inhibition of angiogenesis | demonstrate inhibition of interleukin 1 |  | 
8 | CN1CCN(CC(=O)[C@@]2(O)CC[C@H]3[C@@H]4CCC5=CC(=O)CC[C@]5(C)C4=CC[C@@]32C)CC1 [Example 101, 17α-hydroxy-21-(4-methyl-1-piperazinyl)-pregna-4,9(11)-diene-3,20-dione] |  | demonstrate inhibition of interleukin 1 |  | 
9 | C[C@]12CCC(=O)C=C1CC[C@@H]1C2=CC[C@]2(C)[C@@H](CCN3CCN(c4cc(N5CCCC5)nc(N5CCCC5)n4)CC3)CC[C@@H]12.Cl [Example 104, 21-[4-(2,6-Bis(1-pyrrolidinyl)-4-pyrimidinyl)-1-piperazinyl]pregna-4,9(11)-dien-3-one hydrochloride] | demonstrate inhibition of angiogenesis |  | demonstrate such activity | 
10 | C[C@]12CC[C@H]3[C@@H](CCC4=CC(=O)CC[C@@]43C)[C@@H]1CC[C@@H]2CCN1CCN(c2cc(N3CCCC3)nc(N3CCCC3)n2)CC1.Cl [Example 107, 21-[4-(2,6-Bis(1-pyrrolidinyl)-4-pyrimidinyl)-1-piperazinyl]pregna-4-ene-3-one hydrochloride] |  |  | demonstrate such activity | 
11 | C[C@@]12C(=CC(=O)C[C@@H]1C#N)CC[C@@H]1C2=CC[C@]2(C)[C@@H](CCN3CCN(c4cc(N5CCCC5)nc(N5CCCC5)n4)CC3)CC[C@@H]12.Cl.Cl.Cl.O [Example 110, 21-[4-(2,6-Bis(1-pyrrolidinyl)-4-pyrimidinyl)-1-piperazinyl]-1α-cyanopregna-4,9(11)-diene-3-one-trihydrochloride, hydrate] |  |  | demonstrate such activity | 
12 | C[C@H]1C[C@H]2[C@@H]3C[C@H](F)C4=CC(=O)CC[C@]4(C)C3=CC[C@]2(C)[C@@]1(O)C(=O)CN1CCN(c2cc(N3CCCC3)nc(N3CCCC3)n2)CC1.Cl.Cl [Example 118, 6α-Fluoro-17α-hydroxy-16β-methyl-21-[4-[2,6-bis(1-pyrrolidinyl)-4-pyrimidinyl]-1-piperazinyl]-pregna-4,9(11)-diene-3,20-dione dihydrochloride] |  |  | demonstrate such activity | 
13 | C[C@@H]1C[C@H]2[C@@H]3CCC4=CC(=O)C=C[C@]4(C)[C@H]3CC[C@]2(C)[C@H]1C(=O)CN1CCN(c2cc(N3CCCC3)nc(N3CCCC3)n2)CC1.Cl.Cl [Example 121, 16α-Methyl-21-[4-[2,6-bis(1-pyrrolidinyl)-4-pyrimidinyl]-1-piperazinyl]pregna-1,4-diene-3,20-dione dihydrochloride] |  |  | demonstrate such activity | 
14 | COc1ccc2c(c1)CC[C@@H]1[C@@H]2CC[C@@]2(C)[C@H]1CC[C@]2(O)C(=O)CN1CCN(c2cc(N3CCCC3)nc(N3CCCC3)n2)CC1 [Example 125, 3,17α-Dihydroxy-21-[4-[2,6-bis(1-pyrrolidinyl)-4-pyrimidinyl]-1-piperazinyl]-19-norpregna-1,3,5(10)-trien-20-one 3-methyl ether (E)-2-butenedioate 1:1 salt] |  |  | demonstrate such activity | 
15 | C[C@]12CC[C@@H]3c4ccc(O)cc4CC[C@H]3[C@@H]1CC[C@]2(O)C(=O)CN1CCN(c2cc(N3CCCC3)nc(N3CCCC3)n2)CC1 [Example 129, 3,17α-Dihydroxy-21-[4-[2,6-bis(1-pyrrolidinyl)-4-pyrimidinyl]-1-piperazinyl]-19-norpregna-1,3,5(10)-trien-20-one(E)-2-butenedioate 1:1 salt] |  |  | demonstrate such activity | 
